Legend:
Assay in all cases: Test C preemergence
Type in all cases: in vivo
[1] = tested on: foxtail, giant (giant foxtail, Setaria faberii); settings: for Plant response rating, Foxtail, Giant: scale 0 to 100, 0 no effect, 100 complete control
Method in brief: (§1)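 Herbicidal effect, applied preemergence to sown seeds or postemergence to 1- to 4-leaf plants, was scored visually 13 to 15 d after application, 0 to 100 versus controls.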

[2] = tested on: lambsquarters (Chenopodium album); settings: for Plant response rating, Lambsquarters: scale 0 to 100, 0 no effect, 100 complete control
Method in brief: as §1

[3] = tested on: ryegrass, Italian (Italian ryegrass, Lolium multiflorum); settings: for Plant response rating, Ryegrass, Italian: scale 0 to 100, 0 no effect, 100 complete control
Method in brief: as §1

[4] = tested on: wheat (winter wheat, Triticum aestivum); settings: for Plant response rating, Wheat: scale 0 to 100, 0 no effect, 100 complete control
Method in brief: as §1

[5] = tested on: ragweed (common ragweed, Ambrosia elatior); settings: for Plant response rating, Ragweed: scale 0 to 100, 0 no effect, 100 complete control
Method in brief: as §1

[6] = tested on: oilseed rape (Brassica napus); settings: for Plant response rating, Oilseed Rape: scale 0 to 100, 0 no effect, 100 complete control
Method in brief: as §1

corn (Zea mays) = settings: for Plant response rating, Corn: scale 0 to 100, 0 no effect, 100 complete control
Method in brief: as §1

[7] = tested on: crabgrass, large (large crabgrass, Digitaria sanguinalis); settings: for Plant response rating, Crabgrass, Large: scale 0 to 100, 0 no effect, 100 complete control
Method in brief: as §1

[8] = tested on: velvetleaf (Abutilon theophrasti); settings: for Plant response rating, Velvetleaf: scale 0 to 100, 0 no effect, 100 complete control
Method in brief: as §1

[9] = tested on: barnyardgrass (Echinochloa crus-galli); settings: for Plant response rating, Barnyardgrass: scale 0 to 100, 0 no effect, 100 complete control
Method in brief: as §1

[10] = tested on: nutsedge, yellow (yellow nutsedge, Cyperus esculentus); settings: for Plant response rating, Nutsedge, Yellow: scale 0 to 100, 0 no effect, 100 complete control
Method in brief: as §1

[11] = tested on: morningglory (Ipomoea coccinea); settings: for Plant response rating, Morningglory: scale 0 to 100, 0 no effect, 100 complete control
Method in brief: as §1

[12] = tested on: Galium (catchweed bedstraw, Galium aparine); settings: for Plant response rating, Galium: scale 0 to 100, 0 no effect, 100 complete control
Method in brief: as §1

[13] = tested on: pigweed (Amaranthus retroflexus); settings: for Plant response rating, Pigweed: scale 0 to 100, 0 no effect, 100 complete control
Method in brief: as §1

[14] = tested on: waterhemp (common waterhemp, Amaranthus rudis); settings: for Plant response rating, Waterhemp: scale 0 to 100, 0 no effect, 100 complete control
Method in brief: as §1

soybean (Glycine max) = settings: for Plant response rating, Soybean: scale 0 to 100, 0 no effect, 100 complete control
Method in brief: as §1

[15] = tested on: johnsongrass (Sorghum halepense); settings: for Plant response rating, Johnsongrass: scale 0 to 100, 0 no effect, 100 complete control
Method in brief: as §1

[16] = 31 g ai/ha, 0 is no effect, 100 is complete control

SMILES: O=C1NCC(c2cccc(OC(F)(F)C(F)F)c2)C1C(=O)Nc1ccccc1F (racemic) [Compound 695]
- Plant response rating (scale of 0 to 100), Foxtail, Giant [1, 16]: 80
- Plant response rating, Foxtail, Giant ([1]; 62 g ai/ha): 85
- Plant response rating, Foxtail, Giant ([1]; 125 g ai/ha): 90
- Plant response rating, Foxtail, Giant ([1]; 250 g ai/ha): 90
- Plant response rating (scale of 0 to 100), Lambsquarters [2, 16]: 25
- Plant response rating, Lambsquarters ([2]; 62 g ai/ha): 40
- Plant response rating, Lambsquarters ([2]; 125 g ai/ha): 65
- Plant response rating, Lambsquarters ([2]; 250 g ai/ha): 80
- Plant response rating (scale of 0 to 100), Ryegrass, Italian [3, 16]: 0
- Plant response rating, Ryegrass, Italian ([3]; 62 g ai/ha): 60
- Plant response rating, Ryegrass, Italian ([3]; 125 g ai/ha): 30
- Plant response rating, Ryegrass, Italian ([3]; 250 g ai/ha): 30
- Plant response rating (scale of 0 to 100), Wheat [4, 16]: 40
- Plant response rating, Wheat ([4]; 62 g ai/ha): 5
- Plant response rating, Wheat ([4]; 125 g ai/ha): 35
- Plant response rating, Wheat ([4]; 250 g ai/ha): 60
- Plant response rating (scale of 0 to 100), Ragweed [5, 16]: 35
- Plant response rating, Ragweed ([5]; 62 g ai/ha): 70
- Plant response rating, Ragweed ([5]; 125 g ai/ha): 75
- Plant response rating, Ragweed ([5]; 250 g ai/ha): 80
- Plant response rating (scale of 0 to 100), Oilseed Rape [6, 16]: 0
- Plant response rating, Oilseed Rape ([6]; 62 g ai/ha): 40
- Plant response rating, Oilseed Rape ([6]; 125 g ai/ha): 85
- Plant response rating, Oilseed Rape ([6]; 250 g ai/ha): 80
- Plant response rating (scale of 0 to 100), Corn (corn (Zea mays); [16]): 0
- Plant response rating, Corn (corn (Zea mays); 62 g ai/ha): 25
- Plant response rating, Corn (corn (Zea mays); 125 g ai/ha): 70
- Plant response rating, Corn (corn (Zea mays); 250 g ai/ha): 80
- Plant response rating (scale of 0 to 100), Crabgrass, Large [7, 16]: 90
- Plant response rating, Crabgrass, Large ([7]; 62 g ai/ha): 90
- Plant response rating, Crabgrass, Large ([7]; 125 g ai/ha): 95
- Plant response rating, Crabgrass, Large ([7]; 250 g ai/ha): 95
- Plant response rating (scale of 0 to 100), Velvetleaf [8, 16]: 0
- Plant response rating, Velvetleaf ([8]; 62 g ai/ha): 10
- Plant response rating, Velvetleaf ([8]; 125 g ai/ha): 30
- Plant response rating, Velvetleaf ([8]; 250 g ai/ha): 55
- Plant response rating (scale of 0 to 100), Barnyardgrass [9, 16]: 90
- Plant response rating, Barnyardgrass ([9]; 62 g ai/ha): 90
- Plant response rating, Barnyardgrass ([9]; 125 g ai/ha): 90
- Plant response rating, Barnyardgrass ([9]; 250 g ai/ha): 90
- Plant response rating (scale of 0 to 100), Nutsedge, Yellow [10, 16]: 0
- Plant response rating, Nutsedge, Yellow ([10]; 62 g ai/ha): 0
- Plant response rating, Nutsedge, Yellow ([10]; 125 g ai/ha): 0
- Plant response rating, Nutsedge, Yellow ([10]; 250 g ai/ha): 0
- Plant response rating (scale of 0 to 100), Morningglory [11, 16]: 0
- Plant response rating, Morningglory ([11]; 62 g ai/ha): 0
- Plant response rating, Morningglory ([11]; 125 g ai/ha): 5
- Plant response rating, Morningglory ([11]; 250 g ai/ha): 10
- Plant response rating (scale of 0 to 100), Galium [12, 16]: 50
- Plant response rating, Galium ([12]; 62 g ai/ha): 80
- Plant response rating, Galium ([12]; 125 g ai/ha): 85
- Plant response rating, Galium ([12]; 250 g ai/ha): 90
- Plant response rating (scale of 0 to 100), Pigweed [13, 16]: 50
- Plant response rating, Pigweed ([13]; 62 g ai/ha): 60
- Plant response rating, Pigweed ([13]; 125 g ai/ha): 65
- Plant response rating, Pigweed ([13]; 250 g ai/ha): 70
- Plant response rating (scale of 0 to 100), Waterhemp [14, 16]: 55
- Plant response rating, Waterhemp ([14]; 62 g ai/ha): 75
- Plant response rating, Waterhemp ([14]; 125 g ai/ha): 70
- Plant response rating, Waterhemp ([14]; 250 g ai/ha): 85
- Plant response rating (scale of 0 to 100), Soybean (soybean (Glycine max); [16]): 0
- Plant response rating, Soybean (soybean (Glycine max); 62 g ai/ha): 0
- Plant response rating, Soybean (soybean (Glycine max); 125 g ai/ha): 0
- Plant response rating, Soybean (soybean (Glycine max); 250 g ai/ha): 0
- Plant response rating (scale of 0 to 100), Johnsongrass [15, 16]: 40
- Plant response rating, Johnsongrass ([15]; 62 g ai/ha): 80
- Plant response rating, Johnsongrass ([15]; 125 g ai/ha): 80
- Plant response rating, Johnsongrass ([15]; 250 g ai/ha): 85

From US12077503B2, “Substituted cyclic amides and their use as herbicides” (FMC CORPORATION, priority 2015, dated 2024)
